Data from article PMC6897958, “Structural basis of ligand selectivity and disease mutations in cysteinyl leukotriene receptors” (Nature Communications, 2019).

Columns and labels:
CysLT1R wild type = CysLT1R wild type (Homo sapiens, UniProt Q9Y271); test: cell-based; settings: HEK293, read-out: % IP1 production (normalized), single replicate values, log[Pranlukast] -11 M; CysLT1-wt
CysLT2R [1] = settings: Supplementary Table 3 ref ref.2; cited from earlier work
CysLT1R [2] = settings: Supplementary Table 3 ref ref.2; cited from earlier work
CysLT2R [3] = test: IC50 toward CysLT2R of the benzoxazine SAR series, quoted from the literature; settings: CysLT2R over CysLT1R; SAR series of ref [30]
CysLT1R [4] = test: IC50 toward CysLT1R of the benzoxazine SAR series, quoted from the literature; settings: CysLT1R over CysLT2R; SAR series of ref [30]

Sequence of CysLT1R wild type (Q9Y271 whole entry): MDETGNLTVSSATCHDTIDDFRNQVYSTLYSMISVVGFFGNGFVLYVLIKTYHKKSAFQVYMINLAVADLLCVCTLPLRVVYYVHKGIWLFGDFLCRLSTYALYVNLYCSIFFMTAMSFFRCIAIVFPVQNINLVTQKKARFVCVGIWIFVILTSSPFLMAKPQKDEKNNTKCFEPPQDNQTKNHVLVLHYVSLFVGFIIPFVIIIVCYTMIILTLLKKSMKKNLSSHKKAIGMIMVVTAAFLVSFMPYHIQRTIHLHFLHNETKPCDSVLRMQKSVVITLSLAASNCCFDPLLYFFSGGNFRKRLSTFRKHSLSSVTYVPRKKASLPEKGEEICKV

Row | SMILES | remaining activity at 10 pM (CysLT1R wild type) | IC50 (CysLT2R [1]) | IC50 (CysLT1R [2]) | selectivity for CysLT2R (CysLT2R [3]) | selectivity for CysLT1R (CysLT1R [4])
1 | O=C(Nc1cccc2c(=O)cc(-c3nnn[nH]3)oc12)c1ccc(OCCCCc2ccccc2)cc1 [pranlukast] | 94.3% |  |  |  | 
2 | O=C(O)CCCN1C[C@@H](C(=O)O)Oc2c(NC(=O)c3ccc(OCCCCCc4ccccc4)cc3)cccc21 [cpd 15b] |  | 0.62 nM | 120 nM | 200 fold | 
3 | O=C(O)CCC(=O)N1C[C@@H](C(=O)O)Oc2c(NC(=O)c3ccc(OCCCCc4ccccc4)cc3)cccc21 [cpd 13e] |  | 1800 nM | < 1 nM |  | 1,800 fold
